# Results published in patent US8450266B2 (Ipsen Pharma S.A.S., priority 2008, dated 2013).
# Where a SMILES comes first, the peptide text is derived from it. [ ]: non-standard residue; d: D form. The star is where a group is joined. X2 = CCCCCCN1C(=O)CC(*)C1=O; Decanoyl = CCCCCCCCCC(=O)*; Ac6c = NC1(C(=O)O)CCCCC1; Orn = NCCC[C@H](N)C(=O)O; Hexanoyl = CCCCCC(=O)*
# How the values were obtained:
# [1] = Rat plasma half-life assay (LC-MS); type: in vitro ADME; conditions: incubated at 37° C., read-out: Rat Plasma T½ (converted)
# Description: (§1) B. Human and Rat Plasma Half-Life Assay
# (§2) 50 μl, was removed at various times, like at 0, 1, 2, 3, 4, 8, 24, 32, 48, 56, 72 hours, mixed with 5 μL formic acid and 150 μL acetonitrile in a microcentrifuge tube, vertexed, and centrifuged for 10 minutes at 10K rpm. The supernatant was transferred to an injection vial and analyzed by LC-MS. The LC-MS system consisted of an API4000 mass spectrometer with an ESI probe. Positive ion mode and full scan detection were used. HPLC separation was carried out on a Luna 3μ C8 (2), 2×30 mm column with a gradient from 90% A to 90% B in 10 minutes at a flow rate of 0.3 ml/min. Buffer A was 1% formic acid in water and buffer B was 1% formic acid acetonitrile.
# [2] = Human plasma half-life assay (LC-MS); type: in vitro ADME; conditions: incubated at 37° C., read-out: Human Plasma T½ (converted)
# Description: as §1, §2
Compound,half-life at 0.1 mg/ml [1] [h],half-life at 0.1 mg/ml [2] [h],half-life at 0.1 mg/mL [1] [h],half-life at 0.1 mg/mL [2] [h]
"CCCCCC(=O)NCCC[C@H](NC(=O)[C@H](CCCCN)NC(=O)[C@H](CCC(N)=O)NC(=O)[C@H](C)NC(=O)[C@H](CC(C)C)NC(=O)[C@H](CC(C)C)NC(=O)[C@H](Cc1c[nH]c2ccccc12)NC(=O)[C@H](CC(N)=O)NC(=O)[C@@H](NC(=O)[C@H](Cc1ccccc1)NC(=O)[C@H](CC(=O)O)NC(=O)[C@H](CCC(N)=O)NC(=O)[C@H](CCC(N)=O)NC(=O)[C@H](Cc1c[nH]cn1)NC(=O)[C@@H](NC(=O)[C@H](CCCCN)NC(=O)[C@H](CC(=O)O)NC(=O)[C@H](CCSC)NC(=O)[C@H](C)NC(=O)[C@@H](NC(=O)[C@H](CO)NC(=O)[C@H](Cc1ccc(O)cc1)NC(=O)[C@H](CC(=O)O)NC(=O)[C@H](CO)NC(=O)C1(NC(C)=O)CCCCC1)[C@@H](C)CC)[C@@H](C)CC)C(C)C)C(=O)N[C@@H](CCCCN)C(=O)N[C@@H](CCCCN)C(=O)N[C@@H](CC(N)=O)C(=O)N[C@@H](CC(=O)O)C(=O)N[C@@H](Cc1c[nH]c2ccccc12)C(=O)N[C@@H](CCCCN)C(=O)N[C@@H](Cc1c[nH]cn1)C(=O)N[C@@H](CC(N)=O)C(=O)N[C@H](C(=O)N[C@H](C(=O)N[C@@H](CCC(N)=O)C(=O)O)[C@@H](C)O)[C@@H](C)CC [Example 16, [Ac-A6c^7, Orn^31(N-C(O)-(CH2)4-CH3)]hGIP(7-42)-OH] (Ac-[Ac6c]SDYSIAMDKIHQQDFVNWLLAQK[Orn](Hexanoyl)KKNDWKHNITQ-OH)",30,> 50,,
"CCCCCC(=O)NCCC[C@H](NC(=O)[C@H](CCCCN)NC(=O)[C@H](CCC(N)=O)NC(=O)[C@H](C)NC(=O)[C@H](CC(C)C)NC(=O)[C@H](CC(C)C)NC(=O)[C@H](Cc1c[nH]c2ccccc12)NC(=O)[C@H](CC(N)=O)NC(=O)[C@@H](NC(=O)[C@H](Cc1ccccc1)NC(=O)[C@H](CC(=O)O)NC(=O)[C@H](CCC(N)=O)NC(=O)[C@H](CCC(N)=O)NC(=O)[C@H](Cc1c[nH]cn1)NC(=O)[C@@H](NC(=O)[C@H](CCCCN)NC(=O)[C@H](CC(=O)O)NC(=O)[C@H](CCSC)NC(=O)[C@H](C)NC(=O)[C@@H](NC(=O)[C@H](CO)NC(=O)[C@H](Cc1ccc(O)cc1)NC(=O)[C@H](CC(=O)O)NC(=O)[C@H](CO)NC(=O)C1(N)CCCCC1)[C@@H](C)CC)[C@@H](C)CC)C(C)C)C(=O)N[C@@H](CCCCN)C(=O)N[C@@H](CCCCN)C(=O)N[C@@H](CC(N)=O)C(=O)N[C@@H](CC(=O)O)C(=O)N[C@@H](Cc1c[nH]c2ccccc12)C(=O)N[C@@H](CCCCN)C(=O)N[C@@H](Cc1c[nH]cn1)C(=O)N[C@@H](CC(N)=O)C(=O)N[C@H](C(=O)N[C@H](C(=O)N[C@@H](CCC(N)=O)C(=O)O)[C@@H](C)O)[C@@H](C)CC [Example 17, [A6c^7, Orn^31(N-C(O)-(CH2)4-CH3)]hGIP(7-42)-OH] (H-[Ac6c]SDYSIAMDKIHQQDFVNWLLAQK[Orn](Hexanoyl)KKNDWKHNITQ-OH)",9.4,> 50,,
"CCCCCC(=O)NCCC[C@H](NC(=O)[C@H](CCCCN)NC(=O)[C@H](CCC(N)=O)NC(=O)[C@H](C)NC(=O)[C@H](CC(C)C)NC(=O)[C@H](CC(C)C)NC(=O)[C@H](Cc1c[nH]c2ccccc12)NC(=O)[C@H](CC(N)=O)NC(=O)[C@@H](NC(=O)[C@H](Cc1ccccc1)NC(=O)[C@H](CC(=O)O)NC(=O)[C@H](CCC(N)=O)NC(=O)[C@H](CCC(N)=O)NC(=O)[C@H](Cc1c[nH]cn1)NC(=O)[C@@H](NC(=O)[C@H](CCCCN)NC(=O)[C@H](CC(=O)O)NC(=O)[C@H](CCSC)NC(=O)[C@H](C)NC(=O)[C@@H](NC(=O)[C@H](CO)NC(=O)[C@H](Cc1ccc(O)cc1)NC(=O)[C@H](CC(=O)O)NC(=O)[C@H](CO)NC(=O)C1(NC(=O)CCCCC)CCCCC1)[C@@H](C)CC)[C@@H](C)CC)C(C)C)C(=O)N[C@@H](CCCCN)C(=O)N[C@@H](CCCCN)C(=O)N[C@@H](CC(N)=O)C(=O)N[C@@H](CC(=O)O)C(=O)N[C@@H](Cc1c[nH]c2ccccc12)C(=O)N[C@@H](CCCCN)C(=O)N[C@@H](Cc1c[nH]cn1)C(=O)N[C@@H](CC(N)=O)C(=O)N[C@H](C(=O)N[C@H](C(=O)N[C@@H](CCC(N)=O)C(=O)O)[C@@H](C)O)[C@@H](C)CC [Example 18, [CH3-(CH2)4-C(O)-A6c^7, Orn^31(N-C(O)-(CH2)4-CH3)]hGIP(7-42)-OH] (Hexanoyl-[Ac6c]SDYSIAMDKIHQQDFVNWLLAQK[Orn](Hexanoyl)KKNDWKHNITQ-OH)",6.3,13.8,,
"CCCCCCCCCC(=O)NCCC[C@H](NC(=O)[C@H](CCCCN)NC(=O)[C@H](CCCCN)NC(=O)CNC(=O)[C@H](CCCCN)NC(=O)[C@H](CCC(N)=O)NC(=O)[C@H](C)NC(=O)[C@H](CC(C)C)NC(=O)[C@H](CC(C)C)NC(=O)[C@H](Cc1c[nH]c2ccccc12)NC(=O)[C@H](CC(N)=O)NC(=O)[C@@H](NC(=O)[C@H](Cc1ccccc1)NC(=O)[C@H](CC(=O)O)NC(=O)[C@H](CCC(N)=O)NC(=O)[C@H](CCC(N)=O)NC(=O)[C@H](Cc1c[nH]cn1)NC(=O)[C@@H](NC(=O)[C@H](CCCCN)NC(=O)[C@H](CC(=O)O)NC(=O)[C@H](CCSC)NC(=O)[C@H](C)NC(=O)[C@@H](NC(=O)[C@H](CO)NC(=O)[C@H](Cc1ccc(O)cc1)NC(=O)[C@H](CC(=O)O)NC(=O)[C@H](CO)NC(=O)C1(NC(C)=O)CCCCC1)[C@@H](C)CC)[C@@H](C)CC)C(C)C)C(=O)N[C@@H](CC(=O)O)C(=O)N[C@@H](Cc1c[nH]c2ccccc12)C(=O)N[C@@H](CCCCN)C(=O)N[C@@H](Cc1c[nH]cn1)C(=O)N[C@@H](CC(N)=O)C(=O)N[C@H](C(=O)N[C@H](C(=O)N[C@@H](CCC(N)=O)C(=O)O)[C@@H](C)O)[C@@H](C)CC [Example 19, [Ac-A6c^7, Orn^34(N-C(O)-(CH2)8-CH3)]hGIP(7-42)-OH] (Ac-[Ac6c]SDYSIAMDKIHQQDFVNWLLAQKGKK[Orn](Decanoyl)DWKHNITQ-OH)",10.7,18.9,,
"CCCCCCCCCC(=O)NCCC[C@H](NC(=O)[C@H](CCCCN)NC(=O)[C@H](CCCCN)NC(=O)CNC(=O)[C@H](CCCCN)NC(=O)[C@H](CCC(N)=O)NC(=O)[C@H](C)NC(=O)[C@H](CC(C)C)NC(=O)[C@H](CC(C)C)NC(=O)[C@H](Cc1c[nH]c2ccccc12)NC(=O)[C@H](CC(N)=O)NC(=O)[C@@H](NC(=O)[C@H](Cc1ccccc1)NC(=O)[C@H](CC(=O)O)NC(=O)[C@H](CCC(N)=O)NC(=O)[C@H](CCC(N)=O)NC(=O)[C@H](Cc1c[nH]cn1)NC(=O)[C@@H](NC(=O)[C@H](CCCCN)NC(=O)[C@H](CC(=O)O)NC(=O)[C@H](CCSC)NC(=O)[C@H](C)NC(=O)[C@@H](NC(=O)[C@H](CO)NC(=O)[C@H](Cc1ccc(O)cc1)NC(=O)[C@H](CC(=O)O)NC(=O)[C@H](CO)NC(=O)C1(N)CCCCC1)[C@@H](C)CC)[C@@H](C)CC)C(C)C)C(=O)N[C@@H](CC(=O)O)C(=O)N[C@@H](Cc1c[nH]c2ccccc12)C(=O)N[C@@H](CCCCN)C(=O)N[C@@H](Cc1c[nH]cn1)C(=O)N[C@@H](CC(N)=O)C(=O)N[C@H](C(=O)N[C@H](C(=O)N[C@@H](CCC(N)=O)C(=O)O)[C@@H](C)O)[C@@H](C)CC [Example 20, [A6c^7, Orn^34(N-C(O)-(CH2)8-CH3)]hGIP(7-42)-OH] (H-[Ac6c]SDYSIAMDKIHQQDFVNWLLAQKGKK[Orn](Decanoyl)DWKHNITQ-OH)",,,13.9,9.4
"CCCCCCN1C(=O)CC(SC[C@H](NC(=O)[C@H](CCCCN)NC(=O)[C@H](CCC(N)=O)NC(=O)[C@H](C)NC(=O)[C@H](CC(C)C)NC(=O)[C@H](CC(C)C)NC(=O)[C@H](Cc2c[nH]c3ccccc23)NC(=O)[C@H](CC(N)=O)NC(=O)[C@@H](NC(=O)[C@H](Cc2ccccc2)NC(=O)[C@H](CC(=O)O)NC(=O)[C@H](CCC(N)=O)NC(=O)[C@H](CCC(N)=O)NC(=O)[C@H](Cc2c[nH]cn2)NC(=O)[C@@H](NC(=O)[C@H](CCCCN)NC(=O)[C@H](CC(=O)O)NC(=O)[C@H](CCSC)NC(=O)[C@H](C)NC(=O)[C@@H](NC(=O)[C@H](CO)NC(=O)[C@H](Cc2ccc(O)cc2)NC(=O)[C@H](CC(=O)O)NC(=O)[C@H](CO)NC(=O)C2(NC(C)=O)CCCCC2)[C@@H](C)CC)[C@@H](C)CC)C(C)C)C(=O)N[C@@H](CCCCN)C(=O)N[C@@H](CCCCN)C(=O)N[C@@H](CC(N)=O)C(=O)N[C@@H](CC(=O)O)C(=O)N[C@@H](Cc2c[nH]c3ccccc23)C(=O)N[C@@H](CCCCN)C(=O)N[C@@H](Cc2c[nH]cn2)C(=O)N[C@@H](CC(N)=O)C(=O)N[C@H](C(=O)N[C@H](C(=O)N[C@@H](CCC(N)=O)C(=O)O)[C@@H](C)O)[C@@H](C)CC)C1=O (stereo partly drawn) [Example 22, [Ac-A6c^7, Cys(Hsu)^31]hGIP(7-42)-OH] (Ac-[Ac6c]SDYSIAMDKIHQQDFVNWLLAQKC(X2)KKNDWKHNITQ-OH)",5,7.7,,
